Reference: BigSolDB 2.1

c1ccc(-n2c(-c3cc(-c4nc5ccccc5n4-c4ccccc4)cc(-c4nc5ccccc5n4-c4ccccc4)c3)nc3ccccc32)cc1
solubility (mole fraction)
Conditions	283.15 K	293.15 K	303.15 K	313.15 K	323.15 K
in DMSO	–	0.00119	0.00151	0.0023	0.0032
in THF	0.00159	0.00202	0.00277	0.0042	0.00451
in acetonitrile	0.000114	0.000135	0.000149	0.000188	0.000232
in chlorobenzene	0.00588	0.00711	0.00857	0.00941	0.0111
in chloroform	0.00762	0.00839	0.0092	0.01	0.0113
in cyclohexane	2e-07	4e-07	6e-07	1.1e-06	1.9e-06
in ethanol	0.000357	0.000437	0.000542	0.000716	0.000932
in ethyl acetate	0.000711	0.000777	0.000921	0.0012	0.00174
in isopropanol	1.11e-05	2.18e-05	3.04e-05	4.51e-05	6.88e-05
in methanol	0.000236	0.000259	0.00029	0.000307	0.000361
in n-butanol	0.00117	0.00132	0.00155	0.00167	0.00192
in n-hexane	3.9e-06	5.8e-06	9.5e-06	1.46e-05	2.22e-05
